Measurements taken from patent publication US5358959A, “Methods for treating arteriosclerosis” (President and Fellows of Harvard University, priority 1993, dated 1994).
Where two headings read alike, the source gives them in different places.

Key:
[1] = system: Rat vascular smooth muscle cells; assay: cells; assay type: cell-based; conditions: for inhibition of DNA synthesis by other inhibitors of the Ca++ activated K channel: bFGF-stimulated
Protocol: (§1) DNA synthesis assessed by the uptake of [3H]thymidine: Cells are grown in either 48 or 96 wells plates (Costar, Cambridge, Mass.) at 10^4 and 0.8 10^3 cells per well, respectively, and grown in Dubelcco's modified Eagle's medium (DME, Gibco, Grand Island, N.Y.) supplemented with 10% heat-inactivated calf serum; they are kept at 37° C. in 5% CO2. When they reach confluence, usually between 3 and 4 days, the medium is replaced with DME 0.5% serum to make them quiescent, and mitogenesis assays are performed 24 hours later.
(§2) Quiescent cells are exposed to a mitogenic stimulus, such as 10% serum, PDGF (Sigma Co. St. Louis, Mo.), bFGF (Upstate Biotechnologies, Lake Placid, N.Y.), or other appropriate mitogen according to the cell line, and 3 hours 1 later μCi/ml of [3H]thymidine (Dupont, Billerica, Mass.) is added to the wells, and the cells maintained at 37° C./5% CO2 for additional 21 hours. Then the cells are washed 3 times with DME medium and the acid-precipitable radioactivity is extracted with cold 10% TCA (Sigma, Co). After neutralization with 0.3N NaOH (Sigma Co.), aliquots are counted in a Packard Tri-Carb Scintillation counter (Packard Instrument, Downer's Grove, Ill.).
Rat vascular smooth muscle cells (murine cell line): Quiescent cells were stimulated with purified growth factors (PDGF and bFGF, […]) and synthesis of DNA was assessed by the incorporation of [3H]thymidine measured 24 hours later.
Cells were stimulated using […] bFGF. […] (FIG. 2)
Other antimycotics were tested for their inhibition of bFGF-stimulated DNA synthesis in rat vascular smooth muscle cells.

[2] = target: T1, Ca^++ activated K channel (Homo sapiens, UniProt O15554); assay: Inhibition of the Ca++ activated K channel of human erythrocytes (86Rb influx, K efflux); assay type: cell-based; conditions: for order of inhibitory potency, Ca++ activated 86Rb influx / inhibition of Ca++ activated 86Rb influx by other antimycotics and related compounds: human erythrocytes, FIG. 4
T1 construct: endogenous in cells; host or cells: human erythrocytes (washed red blood cells from heparinized blood)
Protocol: Preparation of Human Red Blood Cells: Blood is collected in heparinized tubes and centrifuged in a Sorvall centrifuge (RB 5B, Du Pont Instruments,Newtown, Conn.) at 5° C. for 10 minutes at 3000 g. Plasma and buffy coat are carefully removed and the cells washed four times with a washing solution containing 150 mM choline chloride (Sigma Co), 1 mM MgC12 (Sigma Co), 10 mM Tris-MOPS (Sigma, Ca), pH 7.4 at 4° C.(CWS). An aliquot of cells is then suspended in an approximately equal volume of CWS, and from this original cell suspension hematocrit (Hct) and hemoglobin (optical density at 540 nm) are determined.
Methods to Test Inhibitors of the Ca^++ Activated K: To test inhibitors of the Ca^++ activated K channel, the channel is activated using the calcium ionophore A23187 (Chalbiochem).
By Atomic Absorption Spectrometry: Washed human erythrocyte are suspended at an hematocrit =1% in CWS containing 0.150 mM CaCl2 (Sigma Co) Aliquots of 1 ml are removed at 0, 3 and 5 minutes, layered on top of 0.3 ml of the oil n-butyl phthalate (Fair Lane, N.J.) placed in an Eppendorf microtube (Fisher) and then centrifuged in a micro centrifuge for 20 seconds. At time 5.30 minutes, ionophore A23187 (1 μM final concentration) is added and samples removed and spin down through phthalate at times 6, 7, 8 and 9 minutes. The supernatant on top of the oil layer is removed and its K+ concentration is measured by atomic absorption spectrometry using a Perking Elmer model 5000 spectrometer (Perkin Elmer Corp., Norwolk, Conn.). The efflux of K+ (mmol/1 cells/h) in the absence and presence of the inhibitor is calculated from the slope of the curves relating the K+ concentration in the supernatants (mmol/1 cells) vs. time (min.).
By radioisotopic measurement of ^86 Rb influx. The incubation medium is the same but contains 2 mM KCl and 1 μCi/ml of the radioactive tracer ^86 Rb. After spinning the samples through the phthalate layer, the tubes are rapidly frozen (-80° C.) by immersion in methanol-dry ice, the tips of the tubes containing the packed red cells cut, and counted in a Packard Gamma Counter.

[3] = system: endothelial cells; assay: Proliferation of endothelial cells (general statement); assay type: cell-based; conditions: for inhibition of proliferation of endothelial cells: specific inhibitors of the Ca++ activated potassium channel
[4] = system: vascular smooth muscle cells; assay: Proliferation of vascular smooth muscle cells (general statement); assay type: cell-based; conditions: for inhibition of proliferation of vascular smooth muscle cells: specific inhibitors of the Ca++ activated potassium channel
[5] = system: cell proliferation; assay: Cell proliferation with inhibitors of other transport systems (general statement); assay type: cell-based; conditions: inhibitors of other transport systems activated by mitogens
[6] = system: Bovine endothelial (BAEC); assay: Cell growth (flask surface covered by the cell monolayer), bovine endothelial cells; assay type: cell-based; conditions: CLT 10 μM; 48 hs; DME 10% calf serum; control 90±2%
Protocol: (§3) Measurement of cell density in culture plates: Cells of a specific test cell line are seeded at precisely the same low density in culture plates and incubated for approximately 12 hours in DME 10% serum, or other culture medium depending on the cell line tested. […] Alternatively, the cells can be detached from the plate by incubation with trypsin (Sigma, Co.) […] in ethylene diaminotetraacetic acid (ECTA; Sigma, Co); then the cells are counted in an hemocytometer chamber (Fisher, Pittsburgh, Pa.).
(§4) After 48 hs cell growth was assessed by optic miscroscopy calculating the surface of the culture flask covered by the cell monolayer.

[7] = system: human umbilical vein (HUVEC); assay: Cell growth (flask surface covered by the cell monolayer), human umbilical vein cells; assay type: cell-based; conditions: CLT 10 μM; 48 hs; DME 10% fetal calf serum; control 90±2%
Protocol: as §3, §4

[8] = system: Swiss 3T3; assay: Proliferative response of quiescent 3T3 cells to conditioned media of MAC treated endothelial cells; assay type: cell-based, murine; conditions: 10 μM CLT; FIG. 5
Protocol: (§5) When endothelial cells (EC) in culture (both BAEC and HUVEC) are treated with terminal complement components to form the MAC (membrane attack complex of complement), they release into the culture medium a potent mitogenic activity that stimulates the proliferation of quiescent cells used as indicators of the mitogens. Both, quiescent Swiss 3T3 and vascular smooth muscle cells are stimulated by the mitogens released form EC in response to the MAC (FIG. 5; Halperin et al. unpublished observation). Moreover, immunoprecipitation with specific antibodies has documented that both PDGF and bFGF released from the EC contribute in approximately equal proportion to the mitogenic activity induced by the MAC (data not shown).

[9] = system: vascular smooth muscle cells; assay: Proliferative response of vascular smooth muscle cells to conditioned media of MAC treated endothelial cells; assay type: cell-based; conditions: 10 μM CLT; FIG. 5
Protocol: as §5

[10] = system: Swiss 3T3 cells; assay: DNA synthesis ([3H]thymidine incorporation) in normal fibroblasts; assay type: cell-based, murine
Protocol: as §1, §2
Swiss 3T3 cells (murine fibroblast cell line): Quiescent cells were stimulated with purified growth factors (PDGF and bFGF, […]) and synthesis of DNA was assessed by the incorporation of [3H]thymidine measured 24 hours later.

[11] = system: testicular and adrenal synthesis of steroid hormones; conditions: cited from earlier work
[12] = 60 μmol A23187/L cell and 100 μM CaCl2

In the case of `Clc1ccc(COC(Cn2ccnc2)c2ccc(Cl)cc2Cl)c(Cl)c1` (centres unmarked) [MCZ, miconazole], the “order of inhibitory potency, bFGF-stimulated DNA synthesis” value ([1]; 10 μM, FIG. 3) is reported as “ECZ more potent than MCZ”, the “inhibition of bFGF-stimulated DNA synthesis” value ([1]; antimycotics at 10 μM, FIG. 3) is reported as “inhibited DNA synthesis” and the “order of inhibitory potency, Ca++ activated 86Rb influx” value [2] is reported as “both of these were more than econazole”.
With Charybdotoxin the “inhibition of DNA synthesis by other inhibitors of the Ca++ activated K channel” value ([1]; FIG. 3) was “failed to inhibit DNA synthesis”, the “inhibition of proliferation of endothelial cells” value [3] was “do not inhibit proliferation” and the “inhibition of proliferation of vascular smooth muscle cells” value [4] was “do not inhibit proliferation”.
In the case of `Cc1ncc([N+](=O)[O-])n1CC(O)CCl` (centres unmarked) [ornidazole], the “inhibition of Ca++ activated 86Rb influx by other antimycotics and related compounds” value [2] is reported as “no inhibition”.
In the case of `CCS(=O)(=O)CCn1c([N+](=O)[O-])cnc1C` [tinidazole], the “inhibition of Ca++ activated 86Rb influx by other antimycotics and related compounds” value [2] is reported as “no inhibition”.
With “kaliotoxin: specific inhibitors of the Ca^++ activated potassium channel” the “inhibition of DNA synthesis by other inhibitors of the Ca++ activated K channel” value ([1]; FIG. 3) was “failed to inhibit DNA synthesis”, the “inhibition of proliferation of endothelial cells” value [3] was “do not inhibit proliferation” and the “inhibition of proliferation of vascular smooth muscle cells” value [4] was “do not inhibit proliferation”.
In the case of `Clc1ccc(COC(Cn2ccnc2)c2ccc(Cl)cc2Cl)cc1` (centres unmarked) [ECZ, econazole], the “order of inhibitory potency, bFGF-stimulated DNA synthesis” value ([1]; 10 μM, FIG. 3) is reported as “ECZ more potent than MCZ”, the “inhibition of bFGF-stimulated DNA synthesis” value ([1]; antimycotics at 10 μM, FIG. 3) is reported as “inhibited DNA synthesis” and the “order of inhibitory potency, Ca++ activated 86Rb influx” value [2] is reported as “both of these were more than econazole”.
In the case of `C[C@@H]1O[C@@H](O[C@H]2C[C@@H](O)[C@]3(CO)[C@H]4[C@H](O)C[C@]5(C)[C@@H](C6=CC(=O)OC6)CC[C@]5(O)[C@@H]4CC[C@]3(O)C2)[C@H](O)[C@H](O)[C@H]1O` [ouabain], the “inhibition of cell proliferation” value [5] is reported as “do not inhibit cell proliferation”.
For `Cc1ncc([N+](=O)[O-])n1CCO` [metronidazole], the “inhibition of Ca++ activated 86Rb influx by other antimycotics and related compounds” value [2] was “only marginal”.
In the case of `Clc1ccccc1C(c1ccccc1)(c1ccccc1)n1ccnc1` [CLT, clotrimazole], the “dose response of inhibition of DNA synthesis” value [1] is reported as “Inhibition was dose dependent”, the “inhibition of DNA synthesis” value [1] is reported as “complete inhibition” and the “inhibition of PDGF stimulated DNA synthesis” value [1] is reported as “completely inhibited”. For the same compound, the “inhibition of bFGF stimulated DNA synthesis” value [1] was “completely inhibited”, the “order of inhibitory potency, bFGF-stimulated DNA synthesis” value [1] was “CLT more potent than ECZ” and the “reversibility of the inhibition of DNA synthesis (toxic, non-specific effect)” value [1] was “reversed by removing CLT”. For the same compound, the “inhibition of bFGF-stimulated DNA synthesis” value ([1]; 10 µM) was “inhibited DNA synthesis”, the inhibition at 1 µM ([1]; Rattus norvegicus, read-out: inhibition of DNA synthesis) was 45% and the “flask surface covered by cells” value [6] was “less than 10%”. The “flask surface covered by cells” value [7] was “less than 10%”, the “inhibition of Ca++ activated 86Rb influx” value [2, 12] was “markedly inhibited” and the “inhibition of Ca++ activated K efflux” value [2, 12] was “markedly inhibited”. For the same compound, the “order of inhibitory potency, Ca++ activated 86Rb influx” value [2] was “clotrimazole more than miconazole”, the “inhibition of proliferative response to mitogens released from EC by MAC” value [8] was “completely inhibited” and the “inhibition of proliferative response to mitogens released from EC by MAC” value [9] was “completely inhibited”. For the same compound, the “inhibition of PDGF stimulated DNA synthesis” value ([10]; 10 μM CLT, PDGF, 5 μM, 24 hours) was “completely inhibited”, the “inhibition of bFGF stimulated DNA synthesis” value ([10]; 10 μM CLT, bFGF, 5 μM, 24 hours) was “completely inhibited” and the “reversibility of the inhibition of DNA synthesis (toxic, non-specific effect)” value ([10]; removing CLT and re-stimulating with the growth factor) was “reversed by removing CLT”.
With `OC(Cn1cncn1)(Cn1cncn1)c1ccc(F)cc1F` [fluconazole] the “inhibition of Ca++ activated 86Rb influx by other antimycotics and related compounds” value [2] was “no inhibition”.
In the case of `N=C(N)NC(=O)c1nc(Cl)c(N)nc1N` [amiloride], the “inhibition of cell proliferation” value [5] is reported as “do not inhibit cell proliferation”.
For `CC(=O)N1CCN(c2ccc(OCC3COC(Cn4ccnc4)(c4ccc(Cl)cc4Cl)O3)cc2)CC1` (centres unmarked) [Ketoconazole, ketoconazole], the “usefulness for inhibiting endothelial cell proliferation” value ([3]; ketoconazole, no data given) is given as “not useful”, the “usefulness for inhibiting smooth muscle cell proliferation” value ([4]; ketoconazole, no data given) is given as “not useful” and the “treatment of prostate cancer” value ([11]; by blocking steroid synthesis) is given as “effective in treating some prostate cancers”. The plasma testosterone ([11]; hormonal adjuvant for prostate cancer treatment) was “reduces plasma testosterone to castration levels” and the “testicular and adrenal synthesis of steroid hormones, including testosterone” value ([11]; in high doses) was “appears to inhibit”.
